Data reported in PMC7559923, “In Vitro Modeling of Bradykinin-Mediated Angioedema States” (Pharmaceuticals, 2020).
Ends that are not written are not given here. * marks the point of attachment. Biotin = O=C1N[C@H]2[C@H](CS[C@H]2CCCCC(=O)*)N1

Tests used:
[1] = molecular target: ACE; design: method as in 2 sources, one per row (each row's own in cited_ref): ref 35 = [35]; PMID 18201802; doi:10.1016/j.peptides.2007.12.004; 35. Morissette G. Couture J.P. Désormeaux A. Adam A. Marceau F. Lack of direct interaction between enalaprilat and the kinin B 1 receptors Peptides 2008 29 606 612 10.1016/j.peptides.2007.12.004 18201 ||| ref 36 = [36]; PMID 20452384; doi:10.1016/j.peptides.2010.04.027; 36. Koumbadinga G.A. Bawolak M.T. Marceau E. Adam A. Gera L. Marceau F. A ligand-based approach to investigate the expression and function of angiotensin converting enzyme in intact human umbilical ve; details: cited from earlier work
[2] = tested on: B1 receptor; details: cited from earlier work
From the text: (§1) (Figure 2). Thus, the EIA signal may be contaminated with the inert metabolite generated by aminopeptidase P, a significant peptidase that inactivates BK [17]. One way out is to couple the EIA quantification with chromatographic separation of kinins, such as HPLC [29].

[3] = tested on: B2 receptor; details: cited from earlier work
From the text: as §1

[4] = tested on: polyclonal anti-BK antibodies; assay: Cross-reactivity of the BK EIA (Phoenix Pharmaceuticals) with kinin sequences; assay type: binding; details: Figure 2 (reproduced in part from ref 12)
From the text: BK and related peptides are formed locally close to their site of action (autacoids). They are extremely unstable and prone to artefactual formation when blood or tissues are sampled (for instance, following contact of blood with glass). Therefore, measuring kinins in venous blood is not really informative, contrasting with many useful peptide hormone dosages applied in endocrinology. A further challenge in concentration determination is that the BK sequence is embedded in that of precursor kininogens, with necessary separation if an antibody-based detection system is considered. Blais et al. have reviewed these pitfalls and discussed extraction procedures and recovery in the context of the currently applied immunoassays. Professor A. Adam and co-workers developed separate competitive chemiluminescence enzyme immunoassays (EIAs) for BK and des-Arg^9-BK based on digoxygenin-conjugated peptides. Now several commercially available kits are being used, such as that from Phoenix Pharmaceuticals for BK (96-well plate format), and these have the advantage of world-wide reproducibility. The sensitivity of EIAs is excellent. […]
(Figure 2). […] One way out is to couple the EIA quantification with chromatographic separation of kinins, such as HPLC [29]. […]

[5] = tested on: human B1 receptor; details: cited from earlier work
From the text: The present paper reviews recent literature, contains some original results, and aims to illustrate the role of the analytical biochemistry of BK-related kinins in the understanding of angioedema (AE) mediated by kinins. The kallikrein –kinin system is made of many molecular participants present or secreted in blood plasma or present at the vascular endothelial surface (Figure 1). There are two different precursors of kinins, low and high molecular weight kininogens (LK, HK; abbreviations are defined in Table 1). Those proteins are encoded by alternative splicing of a single gene ...

[6] = tested on: polyclonal anti-BK antibodies; details: cited from earlier work; for cross-reactivity in the BK EIA as stated by the manufacturer: ref Phoenix Pharmaceuticals
From the text: BK and related peptides are formed locally close to their site of action (autacoids). They are extremely unstable and prone to artefactual formation when blood or tissues are sampled (for instance, following contact of blood with glass). Therefore, measuring kinins in venous blood is not really informative, contrasting with many useful peptide hormone dosages applied in endocrinology. A further challenge in concentration determination is that the BK sequence is embedded in that of precursor kininogens, with necessary separation if an antibody-based detection system is considered. Blais e ... || Figure 2 Cross-reactivity of the BK EIA with selected kinin sequences. […] Reproduce ...

[7] = cited from earlier work
Procedure: Samples were incubated at 37 °C under agitation for the indicated time periods before extraction and EIA determination of BK. The number of replicated from different healthy donors is indicated by “n”. […] Reproduced from. (B) Catabolism of BK ... || One stored plasma sample that was received in our laboratory was partly clotted and excluded from our previous studies. […] Secondly, the par ...

[8] = BK 10 ng/mL, adherent HUVECs at 37 °C without serum, radioimmunoassay; cited from earlier work
From the text: ACE activity in serum or blood plasma corresponds, in healthy individuals, to a form of the protein shed from the vascular endothelial cells in an apparently regulated manner. ACE, membrane arginine carboxypeptidase (carboxypeptidase M), aminopeptidase P and other potential kininases are expressed at the surface of vascular endothelial cells. Primary cultures of human umbilical vein endothelial cells (HUVECs) are a standard model for which significant information is available. These cells express at their surface a high number of ACE molecule, as judged from the saturable binding of [^3 ...

[9] = BK added ex vivo to plasma of healthy subjects who took two daily doses of enalapril maleate; cited from earlier work
[10] = Degradation of BK by intact adherent HUVECs (Phoenix Pharmaceuticals BK EIA)
Procedure: Samples were incubated at 37 °C under agitation for the indicated time periods before extraction and EIA determination of BK. The number of replicated from different healthy donors is indicated by “n”. […] Reproduced from.
ACE activity in serum or blood plasma corresponds, in healthy individuals, to a form of the protein shed from the vascular endothelial cells in an apparently regulated manner. ACE, membrane arginine carboxypeptidase (carboxypeptidase M), aminopeptidase P and other potential kininases are expressed at the surface of vascular endothelial cells. Primary cultures of human umbilical vein endothelial cells (HUVECs) are a standard model for which significant information is available.

C[C@H](N[C@@H](CCc1ccccc1)C(=O)O)C(=O)N1CCC[C@H]1C(=O)O [[^3H]enalaprilat, enalaprilat]
Kd ([1]; saturable binding to intact HUVECs): 0.23 nM

BK1–5: BK fragment produced by two cycles of ACE activity, more stable than most kinins (RPPGF; Bradykinin; UniProt P01042 381-385, looked up, fragment)
activity on B1 receptors [2]: inactive
activity on B2 receptors [3]: inactive

BK1–7: BK fragment produced by ACE (RPPGFSP; Bradykinin; UniProt P01042 381-387, looked up, fragment)
activity on B1 receptors [2]: inactive
activity on B2 receptors [3]: inactive

D-Arg-BK-Arg-Arg
cross-reactivity in the BK EIA vs. BK [4]: loses much affinity
cross-reactivity in the BK EIA vs. BK ([4]; listed as Arg-BK-Arg-Arg): partial reactivity

Lys-des-Arg^9-BK
affinity for the human form of the B1 receptor [5]: subnanomolar affinity
cross-reactivity in the BK EIA ([6]; Phoenix Pharmaceuticals BK EIA): do not cross react at all

RPPGFSPFR [BK, bradykinin]
time in which BK was completely cleared [7]: 5 min
half-life (first order decay) ([7]; human): 7.1 min
t1/2 ([7]; human): 0.567 min
half-life [8]: about 50 min
increase of BK t1/2 relative to the pre-treatment value [9]: ~ 5 fold
stability in wells without cells (nude plastic) [10]: stable
half-life at 10 nM ([10]; human, pH 7.4): 12.3 min

biotinyl-BK (Biotin-RPPGFSPFR; UniProt P01042 381-389, looked up) [biotin-labelled BK tracer]
cross-reactivity in the BK EIA as stated by the manufacturer [6]: fully cross-reacts

des-Arg^9-BK (RPPGFSPF; Bradykinin; UniProt P01042 381-388, looked up, fragment) [BK metabolite produced by arginine carboxypeptidases (kininase I)]
affinity for the human form of the B1 receptor [5]: very weak affinity
cross-reactivity in the BK EIA as stated by the manufacturer [6]: not

lysyl-bradykinin [Lys-BK]
cross-reactivity in the BK EIA as stated by the manufacturer [6]: fully cross-reacts
displacement of [3H]enalaprilat binding ([1]; HUVECs): displaced
